Key:
Assay in all cases: KAM-matrix competition in K562 lysate;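 for 0.001 uM KAM: median log10 fold change of treatment over DMSO control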;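 for 0.01 uM KAM: median log10 fold change of treatment over DMSO control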;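 for 0.1 uM KAM: median log10 fold change of treatment over DMSO control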;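 for 1 uM KAM: median log10 fold change of treatment over DMSO control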;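 for 10 uM KAM: median log10 fold change of treatment over DMSO control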
Type in all cases: binding
ACVR1B = target: T1, ACVR1B (Homo sapiens, UniProt P36896)
T1 construct: endogenous in cells; host or cells: K562
T1 sequence (P36896 24-505): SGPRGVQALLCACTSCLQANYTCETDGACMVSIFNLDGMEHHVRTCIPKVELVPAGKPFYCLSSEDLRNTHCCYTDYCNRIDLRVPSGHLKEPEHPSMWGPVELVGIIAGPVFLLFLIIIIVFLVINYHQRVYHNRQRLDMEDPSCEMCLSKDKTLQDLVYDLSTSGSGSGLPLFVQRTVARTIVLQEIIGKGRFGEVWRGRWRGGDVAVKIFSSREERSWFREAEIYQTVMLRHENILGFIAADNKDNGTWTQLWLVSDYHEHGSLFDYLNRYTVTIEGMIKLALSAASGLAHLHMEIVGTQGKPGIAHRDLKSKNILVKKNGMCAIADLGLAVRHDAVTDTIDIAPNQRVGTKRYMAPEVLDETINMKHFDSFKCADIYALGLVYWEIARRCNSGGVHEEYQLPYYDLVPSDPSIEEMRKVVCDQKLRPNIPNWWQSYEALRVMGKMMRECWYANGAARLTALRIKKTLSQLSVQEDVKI
Experimental: (§1) Supplement 12953_2017_125_MOESM1_ESM.zip/MS_Supp Info.xlsx, sheet "KAM" | column: 10 uM KAM; 1 uM KAM; 0.1 uM KAM; 0.01 uM KAM; 0.001 uM KAM; RB50

PDIK1L = target: T2, PDIK1L (Homo sapiens, UniProt Q8N165)
T2 construct: endogenous in cells; host or cells: K562
Experimental: as §1

STK10 = target: T3, STK10 (Homo sapiens, UniProt O94804)
T3 construct: endogenous in cells; host or cells: K562 cell lysate
Experimental: as §1

ULK2 = target: T4, ULK2 (Homo sapiens, UniProt Q8IYT8);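 for 0.001 uM KAM: median log10 fold change of treatment over DMSO control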;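 for 0.01 uM KAM: median log10 fold change of treatment over DMSO control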;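 for 0.1 uM KAM: median log10 fold change of treatment over DMSO control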;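 for 1 uM KAM: median log10 fold change of treatment over DMSO control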;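 for 10 uM KAM: median log10 fold change of treatment over DMSO control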
T4 construct: endogenous in cells; host or cells: K562
T4 sequence (Q8IYT8 1-1036): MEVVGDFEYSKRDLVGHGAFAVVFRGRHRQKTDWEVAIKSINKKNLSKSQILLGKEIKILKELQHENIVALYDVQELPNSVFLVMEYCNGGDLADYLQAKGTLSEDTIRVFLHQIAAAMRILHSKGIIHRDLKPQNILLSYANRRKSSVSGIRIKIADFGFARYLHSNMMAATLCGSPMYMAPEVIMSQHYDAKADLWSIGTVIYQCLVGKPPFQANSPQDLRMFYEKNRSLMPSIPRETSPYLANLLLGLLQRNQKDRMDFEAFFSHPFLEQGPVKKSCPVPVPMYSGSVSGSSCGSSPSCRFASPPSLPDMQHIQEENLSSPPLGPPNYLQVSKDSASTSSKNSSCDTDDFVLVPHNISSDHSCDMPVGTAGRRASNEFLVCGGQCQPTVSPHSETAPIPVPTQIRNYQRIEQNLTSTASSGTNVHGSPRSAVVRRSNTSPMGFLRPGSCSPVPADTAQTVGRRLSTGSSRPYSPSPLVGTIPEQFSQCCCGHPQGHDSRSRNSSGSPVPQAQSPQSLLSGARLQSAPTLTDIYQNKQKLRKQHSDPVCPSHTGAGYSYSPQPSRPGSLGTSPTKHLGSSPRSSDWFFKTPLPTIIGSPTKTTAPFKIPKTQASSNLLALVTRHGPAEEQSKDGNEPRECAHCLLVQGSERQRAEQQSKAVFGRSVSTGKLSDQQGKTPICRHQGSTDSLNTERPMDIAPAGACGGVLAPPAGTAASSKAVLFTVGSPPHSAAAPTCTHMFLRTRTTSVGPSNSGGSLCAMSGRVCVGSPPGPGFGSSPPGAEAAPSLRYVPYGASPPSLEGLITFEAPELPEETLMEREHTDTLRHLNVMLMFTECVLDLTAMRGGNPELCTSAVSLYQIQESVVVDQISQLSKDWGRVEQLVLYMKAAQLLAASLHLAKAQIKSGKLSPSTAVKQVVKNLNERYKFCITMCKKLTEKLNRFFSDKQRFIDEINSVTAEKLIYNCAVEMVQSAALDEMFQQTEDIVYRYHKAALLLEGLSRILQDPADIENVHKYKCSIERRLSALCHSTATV
Experimental: as §1

CHEK1 = target: T5, CHEK1 (Homo sapiens, UniProt O14757)
T5 construct: endogenous in cells; host or cells: K562
T5 sequence (O14757 1-476): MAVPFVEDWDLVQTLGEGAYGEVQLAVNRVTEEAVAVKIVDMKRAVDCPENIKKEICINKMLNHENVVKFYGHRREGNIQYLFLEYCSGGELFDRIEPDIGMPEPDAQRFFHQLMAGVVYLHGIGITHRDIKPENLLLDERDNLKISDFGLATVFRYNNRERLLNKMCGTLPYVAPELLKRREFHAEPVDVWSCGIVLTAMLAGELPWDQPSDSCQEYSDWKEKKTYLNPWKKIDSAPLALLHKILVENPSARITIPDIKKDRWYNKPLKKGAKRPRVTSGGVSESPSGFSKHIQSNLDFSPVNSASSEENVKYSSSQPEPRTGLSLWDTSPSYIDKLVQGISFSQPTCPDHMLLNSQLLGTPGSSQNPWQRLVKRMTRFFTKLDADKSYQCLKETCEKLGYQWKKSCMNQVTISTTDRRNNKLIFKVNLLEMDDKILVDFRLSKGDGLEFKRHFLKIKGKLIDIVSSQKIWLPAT
Experimental: as §1

CIT = target: T6, CIT (Homo sapiens, UniProt O14578);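 for 0.001 uM KAM: median log10 fold change of treatment over DMSO control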;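 for 0.01 uM KAM: median log10 fold change of treatment over DMSO control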;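 for 0.1 uM KAM: median log10 fold change of treatment over DMSO control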;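 for 1 uM KAM: median log10 fold change of treatment over DMSO control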;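 for 10 uM KAM: median log10 fold change of treatment over DMSO control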
T6 construct: endogenous in cells; host or cells: K562 lysate
Experimental: as §1

[1] = read-out: RB50 (the source's name)
[2] = KAM 0.001-10 uM, read-out: RB50 (the source's name)

T3 sequence (O94804 whole entry): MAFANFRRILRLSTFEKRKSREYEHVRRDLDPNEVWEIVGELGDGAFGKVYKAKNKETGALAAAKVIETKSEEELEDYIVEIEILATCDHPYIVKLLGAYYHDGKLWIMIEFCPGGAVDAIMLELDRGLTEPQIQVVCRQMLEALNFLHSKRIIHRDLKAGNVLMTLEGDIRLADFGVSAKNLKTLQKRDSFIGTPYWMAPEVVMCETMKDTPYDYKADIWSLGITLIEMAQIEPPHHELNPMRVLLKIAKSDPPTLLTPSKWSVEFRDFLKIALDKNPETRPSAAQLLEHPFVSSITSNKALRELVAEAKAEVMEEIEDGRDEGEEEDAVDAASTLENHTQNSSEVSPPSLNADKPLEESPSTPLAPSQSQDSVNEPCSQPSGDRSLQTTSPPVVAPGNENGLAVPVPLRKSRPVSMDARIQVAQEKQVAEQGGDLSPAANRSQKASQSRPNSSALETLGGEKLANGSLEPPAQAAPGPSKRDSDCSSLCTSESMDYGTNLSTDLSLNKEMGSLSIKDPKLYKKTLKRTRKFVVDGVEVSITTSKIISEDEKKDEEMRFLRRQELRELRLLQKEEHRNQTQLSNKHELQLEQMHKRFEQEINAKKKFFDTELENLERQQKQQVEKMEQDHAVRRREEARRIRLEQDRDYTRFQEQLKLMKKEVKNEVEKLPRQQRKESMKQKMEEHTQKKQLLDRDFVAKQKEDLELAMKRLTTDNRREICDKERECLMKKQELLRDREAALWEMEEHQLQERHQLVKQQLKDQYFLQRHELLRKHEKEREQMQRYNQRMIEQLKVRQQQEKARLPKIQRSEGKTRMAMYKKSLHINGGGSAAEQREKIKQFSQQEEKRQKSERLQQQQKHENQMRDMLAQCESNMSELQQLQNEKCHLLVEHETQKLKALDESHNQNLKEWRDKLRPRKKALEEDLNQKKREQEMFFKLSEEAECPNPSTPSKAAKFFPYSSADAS
T2 sequence (Q8N165 whole entry): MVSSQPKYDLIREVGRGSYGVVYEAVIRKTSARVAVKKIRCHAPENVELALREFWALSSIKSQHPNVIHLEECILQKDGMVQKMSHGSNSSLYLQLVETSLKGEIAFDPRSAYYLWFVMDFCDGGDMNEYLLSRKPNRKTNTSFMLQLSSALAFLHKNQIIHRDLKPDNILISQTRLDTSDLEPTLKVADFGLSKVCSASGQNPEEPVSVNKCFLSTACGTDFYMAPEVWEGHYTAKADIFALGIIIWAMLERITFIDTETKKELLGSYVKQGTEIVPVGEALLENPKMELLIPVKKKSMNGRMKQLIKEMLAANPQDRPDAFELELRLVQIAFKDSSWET
T6 sequence (O14578 whole entry): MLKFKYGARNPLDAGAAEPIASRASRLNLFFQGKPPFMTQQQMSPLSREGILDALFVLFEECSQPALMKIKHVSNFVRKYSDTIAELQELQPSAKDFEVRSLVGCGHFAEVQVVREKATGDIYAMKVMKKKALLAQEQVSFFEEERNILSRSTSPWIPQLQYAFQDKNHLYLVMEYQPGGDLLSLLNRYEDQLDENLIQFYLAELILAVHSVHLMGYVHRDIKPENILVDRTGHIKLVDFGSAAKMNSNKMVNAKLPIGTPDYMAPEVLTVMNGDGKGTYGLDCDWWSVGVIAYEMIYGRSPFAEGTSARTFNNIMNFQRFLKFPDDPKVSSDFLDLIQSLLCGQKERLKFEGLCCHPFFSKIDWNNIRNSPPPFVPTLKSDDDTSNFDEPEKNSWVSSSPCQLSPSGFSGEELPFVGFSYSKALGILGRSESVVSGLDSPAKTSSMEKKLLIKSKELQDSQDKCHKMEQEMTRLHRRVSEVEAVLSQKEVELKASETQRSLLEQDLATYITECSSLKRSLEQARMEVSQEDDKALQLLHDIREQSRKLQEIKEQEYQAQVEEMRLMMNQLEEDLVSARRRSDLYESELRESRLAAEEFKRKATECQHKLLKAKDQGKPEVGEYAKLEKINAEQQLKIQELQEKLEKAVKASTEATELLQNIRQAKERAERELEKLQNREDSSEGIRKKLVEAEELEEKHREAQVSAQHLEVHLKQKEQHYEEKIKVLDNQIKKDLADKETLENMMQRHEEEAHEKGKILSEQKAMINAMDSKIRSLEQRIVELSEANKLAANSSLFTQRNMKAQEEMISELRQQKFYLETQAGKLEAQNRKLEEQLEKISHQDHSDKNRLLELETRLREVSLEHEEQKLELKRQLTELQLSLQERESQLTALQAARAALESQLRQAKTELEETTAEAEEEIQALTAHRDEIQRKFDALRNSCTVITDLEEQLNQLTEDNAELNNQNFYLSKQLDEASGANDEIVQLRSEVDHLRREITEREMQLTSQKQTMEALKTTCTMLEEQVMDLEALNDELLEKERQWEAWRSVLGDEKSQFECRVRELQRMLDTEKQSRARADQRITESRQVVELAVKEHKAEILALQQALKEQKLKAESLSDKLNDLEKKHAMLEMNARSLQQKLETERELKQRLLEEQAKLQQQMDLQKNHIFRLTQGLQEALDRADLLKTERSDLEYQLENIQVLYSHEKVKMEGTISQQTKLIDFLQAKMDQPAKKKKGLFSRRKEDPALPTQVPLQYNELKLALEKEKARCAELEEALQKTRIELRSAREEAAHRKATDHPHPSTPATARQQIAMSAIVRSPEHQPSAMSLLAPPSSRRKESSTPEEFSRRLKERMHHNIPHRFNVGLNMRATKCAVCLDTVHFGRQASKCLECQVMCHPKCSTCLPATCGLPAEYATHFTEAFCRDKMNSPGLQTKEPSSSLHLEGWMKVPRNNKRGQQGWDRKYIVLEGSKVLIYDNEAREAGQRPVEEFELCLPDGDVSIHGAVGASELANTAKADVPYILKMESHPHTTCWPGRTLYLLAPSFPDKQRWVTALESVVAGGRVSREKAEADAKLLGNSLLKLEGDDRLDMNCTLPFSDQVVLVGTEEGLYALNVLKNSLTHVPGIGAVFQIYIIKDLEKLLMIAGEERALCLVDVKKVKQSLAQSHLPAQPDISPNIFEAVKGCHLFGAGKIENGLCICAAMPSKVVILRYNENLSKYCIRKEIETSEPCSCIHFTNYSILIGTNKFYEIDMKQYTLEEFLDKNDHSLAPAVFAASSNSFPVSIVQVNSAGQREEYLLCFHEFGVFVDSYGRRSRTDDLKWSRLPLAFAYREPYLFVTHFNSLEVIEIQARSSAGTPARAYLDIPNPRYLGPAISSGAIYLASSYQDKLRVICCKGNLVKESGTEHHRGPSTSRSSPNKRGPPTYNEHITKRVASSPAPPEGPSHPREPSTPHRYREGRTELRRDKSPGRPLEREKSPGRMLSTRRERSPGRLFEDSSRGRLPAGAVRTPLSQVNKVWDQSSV

N#CCc1ccc(Nc2nc(NCCCN)cc(Nc3cc(C4CC4)[nH]n3)n2)cc1 [KAM]
median Log10 fold change (ACVR1B; 0.001 uM KAM): -0.01715
median Log10 fold change (ACVR1B; 0.01 uM KAM): -0.04575
median Log10 fold change (ACVR1B; 0.1 uM KAM): -0.2439
median Log10 fold change (ACVR1B; 1 uM KAM): -0.5931
median Log10 fold change (ACVR1B; 10 uM KAM): -0.7717
IC50 (ACVR1B; [1]): 169 nM
median Log10 fold change (PDIK1L; 0.001 uM KAM): -0.01583
median Log10 fold change (PDIK1L; 0.01 uM KAM): -0.03169
median Log10 fold change (PDIK1L; 0.1 uM KAM): -0.1434
median Log10 fold change (PDIK1L; 1 uM KAM): -0.3076
median Log10 fold change (PDIK1L; 10 uM KAM): -0.3596
IC50 (PDIK1L; [1]): 1310 nM
median Log10 fold change (STK10; 0.001 uM KAM): -0.02902
median Log10 fold change (STK10; 0.01 uM KAM): -0.03253
median Log10 fold change (STK10; 0.1 uM KAM): -0.2078
median Log10 fold change (STK10; 1 uM KAM): -0.4135
median Log10 fold change (STK10; 10 uM KAM): -0.5057
IC50 (STK10; [1]): 404 nM
IC50 (ULK2; [2]): > 10000 nM
0.001 uM KAM (ULK2; relative to 0 uM KAM = 0): -0.004094
0.01 uM KAM (ULK2; relative to 0 uM KAM = 0): -0.0009308
0.1 uM KAM (ULK2; relative to 0 uM KAM = 0): 0.03838
1 uM KAM (ULK2; relative to 0 uM KAM = 0): 0.1564
10 uM KAM (ULK2; relative to 0 uM KAM = 0): 0.04645
median Log10 fold change (CHEK1; 0.001 uM KAM): -0.01146
median Log10 fold change (CHEK1; 0.01 uM KAM): -0.009061
median Log10 fold change (CHEK1; 0.1 uM KAM): -0.1025
median Log10 fold change (CHEK1; 1 uM KAM): -0.2953
median Log10 fold change (CHEK1; 10 uM KAM): -0.4632
IC50 (CHEK1; [1]): 1290 nM
IC50 (CIT; [2]): > 10000 nM
0.001 uM KAM (CIT; relative to 0 uM KAM = 0): -0.03357
0.01 uM KAM (CIT; relative to 0 uM KAM = 0): -0.05687
0.1 uM KAM (CIT; relative to 0 uM KAM = 0): -0.1025
1 uM KAM (CIT; relative to 0 uM KAM = 0): -0.03677
10 uM KAM (CIT; relative to 0 uM KAM = 0): -0.04946
